This is an account of results in patent US20250381277A1, “COMPOSITIONS AND METHODS FOR TREATMENT OF NEUROLOGICAL DISORDERS” (Dana-Farber Cancer Institute, Inc., priority 2022, published 2025).

The assay has as its system CD11c^− microglia. In words: Apoptotic neuron (AN) uptake and CD11c^- to CD11c^+ differentiation of microglia with αVβ3 / TAM receptor inhibitors. Format: cell-based, mouse. The settings on record: P5 B6-WT CD11c^− microglia, 72 h with pHrodo-labeled ANs 1:1; cilengitide 10 μM, LDC1267 1 μM. An excerpt:
(A) Brain single cell suspensions of 9-mo old WT mice were generated for validation of microglial CD11c expression by flow cytometry. We first gate on CD11b^+ cells from single/live cells followed by subsequent gating of CD11b^+CD45^low populations as potential microglia. […] In contrast, CCR2 but not Tmem 119 expression is detected in the CD11b^+CD45^high fraction, i.e., putative macrophage populations. Analysis of the CD11b^+CD45^low microglial population using FMO negative controls for these FACS plots confirms specificity. […] (B) The proportion of CD11c^+ microglia in C57BL/6 (B6) mice during early development and normal aging (n=3) was determined by flow cytometry analysis. CD11c^+ microglia were initially present at late embryonic day (E18.5), peaked at early postanal day (P5) and gradually declined to marginal levels in young adulthood (3-mon) followed by re-emergence and further expansion during aging. (C) CD11c^− microglia were isolated from P5 B6-WT mice by negative section with anti-CD11c magnetic beads (purity >99%) followed by co-incubation×72 h in the presence or absence of pHrodo fluorescent dye-labeled apoptotic neurons (ANs) at a 1:1 ratio. After 72 h incubation, 23% of total CD11c^− microglia had ingested ANs (AN^+), of which 77.4% of these AN^+ microglia were CD11c^+. […] Expression of CD11c was assessed in CD86^+ or MHC II^+ activated microglia. […]

Turning to `CC(C)[C@H]1C(=O)N[C@@H](CCCN=C(N)N)C(=O)NCC(=O)N[C@@H](CC(=O)O)C(=O)N[C@H](Cc2ccccc2)C(=O)N1C` [Cilengitide], the “reduction of AN uptake by CD11c^− microglia” value is reported as “about 50%”.
